Consider seven compounds from publication PMC11062922 (Nature Chemical Biology, 2023).

One experiment addresses ABL1 (Homo sapiens, UniProt P00519). Kind of experiment: Kinobeads two-dose competition binding: ABL1. The settings on record: sheet CATDS matrix 2; Gene Name ABL1.
In another experiment the target is T1, ABL2 (Homo sapiens, UniProt P42684).
T1 construct: endogenous in cells
Kind of experiment: Kinobeads two-dose competition binding: ABL2. The settings on record: sheet CATDS matrix 2; Gene Name ABL2.

Another experiment deals with T2, AAK1 (Homo sapiens, UniProt Q2M2I8).
T2 construct: to maximize the representation of endogenous proteins; endogenous in cells
T2 sequence (Q2M2I8 whole entry): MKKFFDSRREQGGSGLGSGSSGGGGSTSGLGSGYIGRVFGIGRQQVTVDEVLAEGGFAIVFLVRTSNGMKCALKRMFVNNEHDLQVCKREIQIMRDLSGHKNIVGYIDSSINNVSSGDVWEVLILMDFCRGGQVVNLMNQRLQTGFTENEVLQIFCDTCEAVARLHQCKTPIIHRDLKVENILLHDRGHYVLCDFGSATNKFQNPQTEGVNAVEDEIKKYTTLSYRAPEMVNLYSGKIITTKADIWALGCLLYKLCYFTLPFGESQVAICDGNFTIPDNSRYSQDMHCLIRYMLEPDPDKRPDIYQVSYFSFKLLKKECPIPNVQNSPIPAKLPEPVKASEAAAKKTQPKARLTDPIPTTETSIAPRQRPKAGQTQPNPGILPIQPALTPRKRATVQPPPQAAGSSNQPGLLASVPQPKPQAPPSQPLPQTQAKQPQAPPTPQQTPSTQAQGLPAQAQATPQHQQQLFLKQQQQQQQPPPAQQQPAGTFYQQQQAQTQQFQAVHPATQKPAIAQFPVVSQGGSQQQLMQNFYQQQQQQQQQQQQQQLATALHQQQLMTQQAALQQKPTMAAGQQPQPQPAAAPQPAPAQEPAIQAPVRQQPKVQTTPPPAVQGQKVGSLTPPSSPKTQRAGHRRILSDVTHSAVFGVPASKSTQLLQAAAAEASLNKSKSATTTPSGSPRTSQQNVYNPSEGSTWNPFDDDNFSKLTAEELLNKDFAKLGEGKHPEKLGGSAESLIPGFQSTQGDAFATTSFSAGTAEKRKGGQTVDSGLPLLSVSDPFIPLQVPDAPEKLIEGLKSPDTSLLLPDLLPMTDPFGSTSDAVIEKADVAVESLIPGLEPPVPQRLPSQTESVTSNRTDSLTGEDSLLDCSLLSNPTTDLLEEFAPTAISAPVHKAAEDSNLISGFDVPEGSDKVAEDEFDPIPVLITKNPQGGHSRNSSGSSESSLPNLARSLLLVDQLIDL
Kind of experiment: Kinobeads two-dose competition binding: AAK1.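 Note: kinobeads competition pulldown from cell lysate, compound preincubated 45 min at 4 °C, bead-bound protein measured by label-free mass spectrometry against DMSO vehicle control.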

In another experiment the target is T3, ACOX1 (Homo sapiens, UniProt Q15067).
T3 construct: endogenous in cells
T3 sequence (Q15067 1-660): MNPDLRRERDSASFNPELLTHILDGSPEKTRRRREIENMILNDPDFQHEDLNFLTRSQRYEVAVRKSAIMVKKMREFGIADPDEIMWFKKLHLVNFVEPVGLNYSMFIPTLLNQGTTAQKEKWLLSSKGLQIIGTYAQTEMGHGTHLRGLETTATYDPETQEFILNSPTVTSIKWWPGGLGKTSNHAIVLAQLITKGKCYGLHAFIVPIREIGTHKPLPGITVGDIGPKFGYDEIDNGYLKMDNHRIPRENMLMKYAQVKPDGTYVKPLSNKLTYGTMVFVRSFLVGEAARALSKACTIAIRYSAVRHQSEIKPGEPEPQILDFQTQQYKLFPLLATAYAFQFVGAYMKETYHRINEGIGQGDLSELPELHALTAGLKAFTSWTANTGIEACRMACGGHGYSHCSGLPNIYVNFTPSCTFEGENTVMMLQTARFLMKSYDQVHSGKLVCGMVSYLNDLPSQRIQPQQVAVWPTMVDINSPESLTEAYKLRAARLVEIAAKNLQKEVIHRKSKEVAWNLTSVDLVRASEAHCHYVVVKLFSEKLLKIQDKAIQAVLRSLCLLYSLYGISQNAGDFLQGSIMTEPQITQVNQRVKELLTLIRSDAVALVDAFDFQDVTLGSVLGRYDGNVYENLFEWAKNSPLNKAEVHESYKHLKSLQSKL
Put plainly: Kinobeads two-dose competition binding: ACOX1.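 Note: competition of compounds with immobilized broad-spectrum kinase inhibitor beads in cell lysate at 100 and 1,000 nM, 45 min at 4 °C, bead-bound protein quantified by label-free MS versus DMSO.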

[1] abbreviates: sheet CATDS matrix 2, Gene Name AAK1.
The mark [2] stands for this setting: sheet CATDS matrix 2, Gene Name ACOX1.

Sequence of ABL1 (P00519 28-1130 limits assumed): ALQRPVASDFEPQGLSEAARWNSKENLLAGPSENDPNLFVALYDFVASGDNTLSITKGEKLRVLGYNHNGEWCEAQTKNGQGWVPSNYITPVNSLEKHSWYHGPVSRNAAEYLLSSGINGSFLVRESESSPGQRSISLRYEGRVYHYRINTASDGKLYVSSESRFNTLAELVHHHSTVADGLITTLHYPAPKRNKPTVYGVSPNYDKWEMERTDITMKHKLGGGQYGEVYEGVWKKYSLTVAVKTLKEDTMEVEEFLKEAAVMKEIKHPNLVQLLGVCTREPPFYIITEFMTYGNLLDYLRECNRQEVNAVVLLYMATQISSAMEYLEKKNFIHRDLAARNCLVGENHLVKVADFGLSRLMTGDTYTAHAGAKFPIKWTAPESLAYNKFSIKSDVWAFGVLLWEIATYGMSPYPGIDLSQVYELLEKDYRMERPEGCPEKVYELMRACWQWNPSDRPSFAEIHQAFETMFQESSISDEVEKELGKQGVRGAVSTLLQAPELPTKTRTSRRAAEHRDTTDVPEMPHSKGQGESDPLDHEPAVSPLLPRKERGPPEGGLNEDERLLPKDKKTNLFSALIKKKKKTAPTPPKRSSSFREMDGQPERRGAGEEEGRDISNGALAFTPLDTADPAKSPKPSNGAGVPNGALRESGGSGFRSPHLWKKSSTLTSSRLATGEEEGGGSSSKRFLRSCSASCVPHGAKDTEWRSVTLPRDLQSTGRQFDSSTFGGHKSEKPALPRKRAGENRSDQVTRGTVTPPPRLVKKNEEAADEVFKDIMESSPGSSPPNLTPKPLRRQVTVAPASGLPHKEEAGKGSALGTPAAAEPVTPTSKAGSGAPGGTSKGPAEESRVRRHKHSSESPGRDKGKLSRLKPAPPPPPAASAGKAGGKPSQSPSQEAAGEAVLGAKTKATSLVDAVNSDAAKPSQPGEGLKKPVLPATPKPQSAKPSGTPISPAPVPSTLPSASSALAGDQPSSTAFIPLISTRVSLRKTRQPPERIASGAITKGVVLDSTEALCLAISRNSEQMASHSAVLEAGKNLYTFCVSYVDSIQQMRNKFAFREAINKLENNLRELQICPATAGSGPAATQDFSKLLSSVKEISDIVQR
T1 sequence (P42684 whole entry): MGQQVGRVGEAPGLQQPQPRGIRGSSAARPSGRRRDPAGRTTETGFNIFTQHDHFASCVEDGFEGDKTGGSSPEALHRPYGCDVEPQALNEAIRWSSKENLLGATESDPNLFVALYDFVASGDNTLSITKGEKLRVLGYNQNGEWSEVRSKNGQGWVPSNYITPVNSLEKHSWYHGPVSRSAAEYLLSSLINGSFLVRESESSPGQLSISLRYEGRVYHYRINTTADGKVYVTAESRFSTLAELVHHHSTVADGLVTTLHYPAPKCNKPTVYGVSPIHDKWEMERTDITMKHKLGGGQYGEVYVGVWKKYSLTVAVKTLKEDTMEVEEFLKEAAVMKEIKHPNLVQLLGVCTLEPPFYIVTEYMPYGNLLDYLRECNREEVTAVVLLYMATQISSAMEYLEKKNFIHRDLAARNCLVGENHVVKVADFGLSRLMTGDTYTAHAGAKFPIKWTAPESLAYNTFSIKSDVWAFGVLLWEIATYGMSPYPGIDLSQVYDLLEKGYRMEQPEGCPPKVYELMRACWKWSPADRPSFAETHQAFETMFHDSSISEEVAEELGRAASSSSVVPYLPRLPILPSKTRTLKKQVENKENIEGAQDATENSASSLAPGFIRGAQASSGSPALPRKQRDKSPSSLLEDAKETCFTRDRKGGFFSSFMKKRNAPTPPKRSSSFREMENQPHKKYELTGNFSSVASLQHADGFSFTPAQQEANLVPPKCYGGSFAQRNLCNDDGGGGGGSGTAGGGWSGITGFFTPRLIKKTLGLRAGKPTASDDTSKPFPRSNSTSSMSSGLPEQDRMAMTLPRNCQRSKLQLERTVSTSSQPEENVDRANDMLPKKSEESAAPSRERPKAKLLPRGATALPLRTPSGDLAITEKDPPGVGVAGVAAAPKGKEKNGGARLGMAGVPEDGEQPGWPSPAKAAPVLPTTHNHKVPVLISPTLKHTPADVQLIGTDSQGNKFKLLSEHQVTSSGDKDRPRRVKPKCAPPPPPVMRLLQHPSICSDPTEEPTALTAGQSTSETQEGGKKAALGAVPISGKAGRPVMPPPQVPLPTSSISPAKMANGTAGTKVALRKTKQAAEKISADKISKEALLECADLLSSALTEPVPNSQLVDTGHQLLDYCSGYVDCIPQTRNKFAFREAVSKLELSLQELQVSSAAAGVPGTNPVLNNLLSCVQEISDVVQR

In the case of `Nc1ncnc2[nH]c(-c3ccccc3)nc12` [AH5015_KCGS], the CATDS at ABL1, on ABL2, at AAK1 (setting [1]), on AAK1 (target AAK1), on ACOX1 (setting [2]) and on ACOX1 (target ACOX1) was 0 each time.
In the case of `CCc1cc2c(cc1N1CCC(N3CCOCC3)CC1)C(C)(C)c1[nH]c3cc(C#N)ccc3c1C2=O` [Alectinib], the CATDS at ABL1, at ABL2, on AAK1 (setting [1]), on AAK1 (target AAK1), at ACOX1 (setting [2]) and on ACOX1 (target ACOX1) was 0 in each case.
With `N#CC1(c2ccc(NC(=O)c3cccnc3NCc3ccncc3)cc2)CCCC1` [Apatinib], the CATDS on ABL1, on ABL2, at AAK1 (setting [1]), on AAK1 (target AAK1), at ACOX1 (setting [2]) and at ACOX1 (target ACOX1) was 0 in each case.
On to `CCN1CCN(Cc2ccc(Nc3ncc(F)c(-c4cc(F)c5nc(C)n(C(C)C)c5c4)n3)nc2)CC1` [Abemaciclib], for which the CATDS at ABL1 is on record as 0; on ABL2 it was 0; at AAK1 (setting [1]), 0.04695; at AAK1 (target AAK1), 0.04695; at ACOX1 (setting [2]), 0; at ACOX1 (target ACOX1) it was 0.
Turning to `C#Cc1cccc(Nc2ncnc3cc(OC)c(OC4CCN(C)CC4)cc23)c1` [BI00007366], the CATDS at ABL1, at ABL2, at AAK1 (setting [1]) and on ACOX1 (setting [2]) was 0 throughout.
At ABL1, `CN(C)C/C=C/C(=O)Nc1cc2c(Nc3ccc(F)c(Cl)c3)ncnc2cc1O[C@H]1CCOC1` [Afatinib] returned a CATDS of 0.
In the case of `CC(C)N1CC(=O)N(C)c2cnc(Nc3cccc(S(=O)(=O)CCN4CCOCC4)c3)nc21` [BI00009348], the CATDS at ABL1 was found to be 0; at ABL2, 0; on AAK1 (setting [1]) it was 0.07467; at ACOX1 (setting [2]), 0. Also, the potency estimated from few doses on AAK1 (sheet "Kinobeads Drugmatrix - all", unit inferred, same values below 1000 recur in sheet "nanomolar", read-out: Kinobeads Drugmatrix - all: apparent Kd, AAK1) was 662 nM.
